From patent EP0257285A2, “Method and compositions for reducing the intraocular pressure of mammals” (Whitby Research Incorporated, priority 1986, dated 1988)
Where two headings read alike, the source gives them in different places.

Key:
Cebus apella monkeys = assay: Intraocular pressure (IOP) measurement after topical unilateral application to the eye of monkeys; assay type: in vivo; conditions: female Cebus apella monkeys, 50ul aliquots, doses 0.165, 0.5 and 1.65 mg, IOP at 0.5, 1, 2, 3, 4 and 5 hours post drug, compared to vehicle alone
Experimental: Male, albino New Zealand rabbits, and female Cebus apella monkeys are used in the example. Rabbits are used primarily to screen for undue ocular toxicity of 2-(N-propyl-N-2-phenylethylamino)-5-hydroxytetralin (active compound) before conducting experiments in monkeys.
A racemic mixture of 2-(N-propyl-N-2-phenylethylamino)-5-hydroxytetralin (active compound) is dissolved in distilled water (vehicle or carrier) on the day of the experiment. Solutions are administered in a masked manner, that is, solutions are prepared by a person that was neither involved in drug administration nor measurement of intraocular pressure (IOP) and pupil diameter (PD). The solution of the active compound is applied unilaterally with the contralateral (fellow) eye receiving vehicle only. Five monkeys are treated bilaterally with vehicle; one to two vehicle-treated monkeys are included each time a different dose of the active compound is used. Doses of active compound tested are: 0.165, 0.5 and 1.65 mg.
After taking two baseline (0 time) measurements, aliquots (50ul) of the solution of active compound and/or vehicle, only, are administered topically. Subsequently, IOP measurements are made at 0.5, 1, 2, 3, 4 and 5 hours post drug.

rabbits = conditions: cited from earlier work
monkeys = conditions: Curr. Eye Res. 2, 281-288; cited from earlier work
[1] = rabbits, Curr. Eye Res. 2, 281-288 and 3, 307-314

Structure (SMILES) | intraocular pressure (Cebus apella monkeys) | intraocular pressure of rabbits (rabbits; rabbit, in vivo) | intraocular pressure of monkeys (monkeys) | intraocular pressure of rabbits (rabbits; [1])
CCCN(CCc1ccccc1)C1CCc2c(O)cccc2C1 (racemic) [active compound, 2-(N-propyl-N-2-phenylethylamino)-5-hydroxytetralin] | effectively lower the intraocular pressure |  |  | 
CC(C)C[C@H]1C(=O)N2CCC[C@H]2[C@]2(O)O[C@](NC(=O)[C@@H]3C=C4c5cccc6[nH]c(Br)c(c56)C[C@H]4N(C)C3)(C(C)C)C(=O)N12 [Bromocriptine] |  | lower the intraocular pressure of rabbits |  | 
CN1C[C@H](CC#N)C[C@@H]2c3cccc4[nH]c(Cl)c(c34)C[C@H]21 [lergotrile] |  |  | lowered the intraocular pressure of monkeys | lower the intraocular pressure of rabbits
CCCN1C[C@H](CSC)C[C@@H]2c3cccc4[nH]cc(c34)C[C@H]21 [pergolide] |  |  | lowered the intraocular pressure of monkeys | lower the intraocular pressure of rabbits
